# Values quoted from earlier work as cited in patent US12622900B2, “Methods and compositions for treating gastric ulcers” (LUODA PHARMA LIMITED, priority 2015, dated 2026).
# Key:
# gastric ulcers = conditions: traditional oral dosing
# gastric acid secretion = conditions: single intramuscular injection at 1 mg/kg bodyweight, omeprazole monohydrate dissolved in saline
structure (smiles),measurement,setting,value
"COc1ccc2nc([S+]([O-])Cc3ncc(C)c(OC)c3C)[nH]c2c1 (stereo not drawn) [omeprazole, 6-methoxy-2-[(4-methoxy-3,5-dimethylpyridin-2-yl)methanesulfinyl]-1H-1,3-benzodiazole]",Gastric ulcers healed,gastric ulcers; in 28-35 days,25%
same,Squamous ulcers that will heal,gastric ulcers; within a 28 day treatment period,70-80%
same,Duration of pentagastrin-stimulated acid suppression,gastric acid secretion,12 h
same,Duration of reduced basal acid secretion,gastric acid secretion,around 23 hours
same,Period for which the dose is effective,gastric acid; 1-2 g daily oral dose to horses,12 to 24 h
same,Duration of adequate gastric acid suppression,gastric acid; oral omeprazole preparations in horses (Merritt et al),12 h
